Our source for the pest or weed control and mortality values is patent US5326766A, “4-(2-(4-(2-pyridinyloxy)phenyl)ethoxy)quinazoline and analogues thereof” (priority 1992, dated 1994).

In assay [1] the test system is Pyricularia oryzae (rice blast). Briefly: whole plant or invertebrate. Conditions: Pyricularia oryzae, foliar, read-out: PYRIOR disease control, host rice; foliar spray; 400 ppm (+++: 100 ppm). The format is in vivo.
Assay [2] concerns aster leafhopper (Macrosteles fascifrons). In words: whole plant or invertebrate. The format is in vivo. Conditions: Macrosteles fascifrons, 24 h, read-out: ALH percent mortality. As to the method: (§1) The compounds identified in Table I were tested for miticidal and insecticidal activity against eight species. The following abbreviations are used in the Table III:
ALH refers to aster leafhopper
(§2) In conducting evaluations of insecticidal activity, each test compound was formulated as a 400 ppm solution, and this solution was then diluted with water to give lesser concentrations. The 400 ppm solution was prepared by combining 19.2 mL of 0.05% solution of Tween 20 (polyoxyethylene (20) sorbitan monolaurate) in water with a solution of 8 mg of the compound in 0.8 mL of acetone/EtOH (9/1).
Activity against aster leafhopper (Macrosteles fascifrons) was tested as follows. The test was run using concentrations of 400 ppm and 50 ppm. One ounce plastic cups containing a cotton wick was sprayed with 0.4 mL of formulated material using a flat-fan nozzle. The excess moisture was allowed to evaporate. Then five to ten carbon dioxide anesthetized adult leafhoppers were added to each cup. The cups were capped and held at room temperature for 24 hours. Percent mortality was then determined.

Assay [3] relates to beet armyworm (Spodoptera exiqua). In words: Activity against beet armyworm. The format is in vivo. Conditions: Spodoptera, 144 h, 6 days, read-out: BAW activity (rated on live and dead larvae and size of live larvae). As to the method: as §1
BAW refers to beet armyworm
as §2
Activity against beet armyworm (Spodoptera exiqua) was evaluated as follows. The test is run using concentrations of 400 ppm and 50 ppm. A general purpose lepidoptera artificial diet was diluted to half strength with a 5% non nutritive agar. 8 mL of this diet material was dispensed into one ounce diet cups. One hour prior to treatment, 35 to 40 eggs were dispensed onto the diet surface. The cups were then sprayed with formulated material through a flat-fan nozzle. Treated cups were air dried prior to sealing with plastic caps. The cups were held for 6 days at room temperature. Activity was then rated based on the total number of live and dead larvae, and on the size of live larvae.

The subject of assay [4] is Southern corn rootworm (Diabrotica undecimpuctata howardi Barber). In words: whole plant or invertebrate. The format is in vivo. Conditions: 400 ppm, soil concentration of 24 ppm, 3-4 days, read-out: SCRW mortality. As to the method:
as §1
SCRW refers to southern corn rootworm
as §2
Activity on Southern corn rootworm (Diabrotica undecimpuctata howardi Barber) was evaluated by adding one mL of test solution containing a predetermined concentration of test compound to a cup containing a kernel of corn in 16 g of sterile soil. This produces a soil concentration of 24 ppm. After 1.5 to 2 hours of drying, five 4th instar corn rootworm larvae were added to the individual cups. Mortality was measured at 3-4 days by emptying the cup onto a pan and inspecting the soil for live rootworms.

The subject of assay [5] is tobacco budworm (Heliothis virescens). In words: Activity against tobacco budworm. The format is in vivo. Conditions: Heliothis virescens, 144 h, 6 days, read-out: TBW activity (rated on live and dead larvae and size of live larvae). As to the method:
as §1
TBW refers to tobacco budworm
as §2
Activity against tobacco budworm (Heliothis virescens) was evaluated as follows. A general purpose lepidoptera artificial diet was diluted to half strength with a 5% non nutritive agar. 8 mL of this diet material was dispensed into each one ounce diet cup. One hour prior to treatment 18 to 20 eggs were dispensed onto the diet surface. The cups were then sprayed with formulated material through a flat-fan nozzle. The test was run using concentrations of 400 ppm and 50 ppm. Treated cups were air dried prior to sealing with plastic caps. The cups were held for 6 days at room temperature. Activity was then rated based on the total number of live and dead larvae, and on the size of live larvae.

The test system of assay [6] is German cockroach (Blattella germanicus). Briefly: whole plant or invertebrate. Conditions: 240 h, ten days, read-out: GECR activity (rated on live and dead insects). The format is in vivo. As to the method: as §1
GECR refers to German cockroach
as §2
Activity against German cockroach (Blattella germanicus) was evaluated as follows. 8 mL of alfalfa based green insect diet material was dispensed into a one ounce diet cup. The cups were then sprayed with formulated material through a flat-fan nozzle. The test was run using concentrations of 400 ppm and 50 ppm. Treated cups were air dried for 24 hours and infested with five late third or early fourth instar German cockroaches. The cups were capped and held for ten days in an environmental growth chamber at a temperature of […]. Activity was then rated based on the total number of live and dead insects.

In assay [7] the test system is cotton aphid (Aphis gossypii). In words: whole plant or invertebrate. Conditions: 72 h; for mortality at 50 ppm: read-out: CA activity (percent based on aphids present in plants sprayed with solvent alone), 50 ppm, squash plants, three days after treatment; for mortality at 400 ppm: read-out: CA activity (percent based on aphids present in plants sprayed with solvent alone), 400 ppm, squash plants, three days after treatment.

For assay [8], the system named is two spotted spider mite (Tetranychus urticae). In words: whole plant or invertebrate. Conditions: 72 h; for mortality at 50 ppm: read-out: TSSM activity (percent based on mites present in plants sprayed with solvent alone), 50 ppm, squash plants, three days after treatment; for mortality at 400 ppm: read-out: TSSM activity (percent based on mites present in plants sprayed with solvent alone), 400 ppm, squash plants, three days after treatment.

The subject of assay [9] is Plasmopara viticola (downy mildew). In words: Foliar spray fungicide test, Plasmopara viticola (downy mildew) on grape. Conditions: Plasmopara viticola, foliar, read-out: PLASVI disease control.
For assay [10], the system named is Leptosphaeria nodorum (glume blotch). Briefly: Foliar spray fungicide test, Leptosphaeria nodorum (glume blotch) on wheat. Conditions: Parastagonospora nodorum, in Triticum aestivum, foliar, read-out: LETPNO disease control, host wheat, 400 ppm (+++: 100 ppm).
Procedure: (§3) The test compounds were formulated for application by dissolving 50 mg of the compound into 1.25 ml of solvent. The solvent was prepared by mixing 50 ml of "Tween 20" (polyoxyethylene (20) sorbitan monolaurate emulsifier) with 475 ml of acetone and 475 ml of ethanol. The solvent/compound solution was diluted to 125 ml with deionized water. The resulting formulation contains 400 ppm test chemical. Lower concentrations were obtained by serial dilution with the solvent-surfactant mixture.
The formulated test compounds were applied by foliar spray.
(§4) The formulated technical compounds were sprayed on all foliar surfaces of the host plants to past run-off. Single pots of each host plant were placed on raised, revolving pedestals in a fume hood. Test solutions were sprayed on all foliar surfaces. All treatments were allowed to dry and the plants were inoculated with the appropriate pathogens within 24 hours.
(§5) The effectiveness of test compounds in controlling disease was rated using the following scale.
The subject of assay [11] is Puccinia recondita tritici (leaf rust). Briefly: Foliar spray fungicide test, Puccinia recondita tritici (leaf rust) on wheat. Conditions: Puccinia recondita, in Triticum aestivum, foliar, read-out: PUCCRT disease control, host wheat, 400 ppm (+++: 100 ppm).
Procedure: as §3
(§6) The formulated test compounds were applied by foliar spray. The following plant pathogens and their corresponding plants were employed.
Puccinia recondita PUCCRT wheat
as §4, §5
The test system of assay [12] is Erysiphe graminis tritici (powdery mildew). Briefly: Foliar spray fungicide test, Erysiphe graminis tritici (powdery mildew) on wheat. Conditions: Blumeria graminis, in Triticum aestivum, foliar, read-out: ERYSGT disease control, host wheat, 400 ppm (+++: 100 ppm).
Procedure: as §3, §6, §4, §5

Take `Fc1cccc2c(OCCc3ccc(Oc4cc(C(F)(F)F)ccn4)cc3)ncnc12` [Compound 12]: the pest or weed control at 400 µg/mL lay within 90 to 100% in assay [1]; 90 to 100% in assay [9]; 20 to 89% in [10]; 90 to 100% in [11]; 90 to 100% in assay [12]. The mortality at 50 ppm in assay [2] came to 80%; in assay [6] it was 0%; in [7] it was 100%; in assay [8], 90%. For the same compound, the mortality at 400 ppm turned out to be 100% in assay [2], 60% in assay [6], 100% in assay [7] and 100% in [8]. Also, the pest or weed control at 50 ppm amounted to 100% in [3] and 70% in assay [5]. Moreover, the pest or weed control at 400 ppm in assay [3] and in assay [5] was 100% in each case. In addition, the mortality at 24 ppm in [4] was 0%.

On to `Fc1cccc2ncnc(OCCc3ccc(Oc4ccc(Cl)cn4)cc3)c12` [Compound 16], for which the pest or weed control at 400 µg/mL in [1] was 90 to 100%; in assay [9] it was 90 to 100%; in assay [10], 20 to 89%; in [11] it was 90 to 100%; in assay [12], 90 to 100%. The mortality at 50 ppm amounted to 80% in assay [2], 0% in [6], 100% in assay [7] and 100% in assay [8]. The mortality at 400 ppm in assay [2] was 100%; in assay [6] it was 40%; in assay [7] it was 100%; in assay [8] it was 100%. In addition, the pest or weed control at 50 ppm in assay [3] and in assay [5] was 100% throughout. Further, the pest or weed control at 400 ppm in [3] and in [5] was 100% each time. In assay [4], the mortality at 24 ppm turned out to be 80%.

Turning to `N#Cc1ccc(Oc2ccc(CCOc3ncnc4c(F)cccc34)cc2)nc1` [Compound 20], the pest or weed control at 400 µg/mL in assay [1] lay within 90 to 100%; in [9] it was 90 to 100%; in assay [10], 20 to 89%; in assay [11] it was 90 to 100%; in assay [12], 90 to 100%. Besides, the mortality at 400 ppm in [2], in assay [6], in assay [7] and in assay [8] was 0% throughout. Also, the pest or weed control at 400 ppm in assay [3] and in assay [5] was 0% each time. In addition, the mortality at 24 ppm in assay [4] amounted to 0%.

Take `N#Cc1ccc(Oc2ccc(CCOc3ncnc4ccccc34)cc2)nc1` [Compound 21]: the pest or weed control at 400 µg/mL was in the range of 20 to 89% in assay [1]; 90 to 100% in [9]; 20 to 89% in [10]; 90 to 100% in assay [11]; 20 to 89% in assay [12]. For the same compound, the mortality at 400 ppm in assay [2] worked out at 60%; in assay [6], 0%; in [7] it was 100%; in [8], 0%. Besides, the pest or weed control at 400 ppm in assay [3] and in [5] was 0% each time. Also, the mortality at 24 ppm in [4] was found to be 0%.

Turning to `O=[N+]([O-])c1ccc(Oc2ccc(CCOc3ncnc4c(F)cccc34)cc2)nc1` [Compound 23], the pest or weed control at 400 µg/mL is 20 to 89% in assay [1]; 90 to 100% in [9]; 20 to 89% in assay [10]; 90 to 100% in [11]; 20 to 89% in assay [12]. Besides, the mortality at 50 ppm in assay [2] was 60%; in [6], 0%; in assay [7], 0%; in assay [8], 0%. Further, the mortality at 400 ppm in assay [2] is 80%; in [6], 40%; in assay [7] it was 90%; in assay [8] it was 50%. In addition, the pest or weed control at 50 ppm in [3] and in [5] was 100% each time. In addition, the pest or weed control at 400 ppm in [3] and in assay [5] was 100% in each case. Moreover, in [4], the mortality at 24 ppm turned out to be 0%.

In the case of `Fc1cccc2c(OCCc3ccc(Oc4ccc(C(Cl)(Cl)Cl)cn4)cc3)ncnc12` [Compound 25], the pest or weed control at 400 µg/mL in assay [1] was in the range of 20 to 89%; in assay [9], 90 to 100%; in assay [10] it was 0 to 19%; in assay [11], 90 to 100%; in [12], 20 to 89%. In addition, the mortality at 400 ppm in assay [2] was found to be 0%; in assay [6], 0%; in assay [7], 85%; in assay [8], 90%. Besides, the figures for the pest or weed control at 400 ppm in [3] and in assay [5] were 0% and 100%, respectively. Moreover, the mortality at 24 ppm in assay [4] turned out to be 0%.

In the case of `ClC(Cl)(Cl)c1ccc(Oc2ccc(CCOc3ncnc4ccccc34)cc2)nc1` [Compound 26], the pest or weed control at 400 µg/mL lay in the range of 20 to 89% in assay [1]; 90 to 100% in assay [9]; 0 to 19% in assay [10]; 90 to 100% in assay [11]; 0 to 19% in [12]. The mortality at 400 ppm amounted to 100% in [2], 0% in assay [6], 100% in assay [7] and 100% in assay [8]. The figures for the pest or weed control at 400 ppm in [3] and in assay [5] were 0% and 100%, respectively. Besides, in assay [4], the mortality at 24 ppm worked out at 0%.
